This note sets out measurements from ChEMBL document CHEMBL1157030 (Eur J Med Chem, 2010).

Assay [1] concerns the target Cholinesterase (Equus caballus, UniProt P81908).
Description: inhibition of equine serum BuChE by Ellman's method
In assay [2] the target is Acetylcholinesterase (Electrophorus electricus, UniProt O42275).
Sequence of Acetylcholinesterase (O42275 whole entry): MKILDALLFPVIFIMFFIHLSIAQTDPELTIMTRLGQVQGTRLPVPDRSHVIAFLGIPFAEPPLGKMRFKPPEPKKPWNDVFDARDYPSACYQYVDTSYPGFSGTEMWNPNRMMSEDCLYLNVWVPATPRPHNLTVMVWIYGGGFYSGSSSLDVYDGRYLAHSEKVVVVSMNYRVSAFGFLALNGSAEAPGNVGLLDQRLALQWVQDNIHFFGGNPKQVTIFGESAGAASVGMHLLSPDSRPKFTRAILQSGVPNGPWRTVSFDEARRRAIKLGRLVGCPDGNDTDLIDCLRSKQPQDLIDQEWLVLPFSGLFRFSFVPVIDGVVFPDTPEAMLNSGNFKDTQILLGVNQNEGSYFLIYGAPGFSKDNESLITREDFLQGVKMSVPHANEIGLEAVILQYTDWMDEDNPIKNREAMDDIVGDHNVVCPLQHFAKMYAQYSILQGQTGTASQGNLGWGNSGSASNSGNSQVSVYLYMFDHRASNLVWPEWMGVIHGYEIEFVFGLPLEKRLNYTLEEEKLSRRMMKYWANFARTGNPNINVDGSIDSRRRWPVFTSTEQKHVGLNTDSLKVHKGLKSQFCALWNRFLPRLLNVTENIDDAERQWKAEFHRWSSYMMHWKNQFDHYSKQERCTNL
Description: inhibition of electric eel AChE by Ellman's method

Sequence of Cholinesterase (P81908 whole entry): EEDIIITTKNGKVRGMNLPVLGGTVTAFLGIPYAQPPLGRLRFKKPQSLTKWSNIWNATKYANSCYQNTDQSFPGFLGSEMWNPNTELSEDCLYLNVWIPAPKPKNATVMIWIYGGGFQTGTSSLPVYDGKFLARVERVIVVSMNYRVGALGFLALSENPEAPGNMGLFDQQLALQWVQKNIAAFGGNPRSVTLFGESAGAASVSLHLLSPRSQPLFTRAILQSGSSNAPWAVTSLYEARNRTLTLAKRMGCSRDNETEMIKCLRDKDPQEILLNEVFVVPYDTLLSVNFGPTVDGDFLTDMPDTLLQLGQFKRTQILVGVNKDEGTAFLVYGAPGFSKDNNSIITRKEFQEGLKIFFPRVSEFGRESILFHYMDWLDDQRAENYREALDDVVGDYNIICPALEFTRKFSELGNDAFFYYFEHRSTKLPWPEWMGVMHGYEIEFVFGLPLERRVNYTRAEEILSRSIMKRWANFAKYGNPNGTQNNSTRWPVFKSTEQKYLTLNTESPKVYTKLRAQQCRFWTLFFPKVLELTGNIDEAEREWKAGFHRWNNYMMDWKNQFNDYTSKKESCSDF

Take `O=C(CN1CCCCC1)Nc1ccc2nc3c4[nH]c5ccccc5c4ccn3c(=O)c2c1`: the IC50 (in general, the concentration that gives 50% inhibition) in assay [1] was determined as 5430 nM; in assay [2] it was 10.1 nM.

For the compound `CCN(CC)CCC(=O)Nc1ccc2nc3n(c(=O)c2c1)CCc1c-3[nH]c2ccccc12`, the IC50 is 2850 nM in assay [1] and 80.2 nM in assay [2].

Regarding `O=C(CCN1CCCCC1)Nc1ccc2nc3n(c(=O)c2c1)CCc1c-3[nH]c2ccccc12`, the IC50 in assay [1] was determined as 2110 nM; in assay [2] it was 21.4 nM.

In the case of `O=C(CCN1CCCC1)Nc1ccc2nc3n(c(=O)c2c1)CCc1c-3[nH]c2ccccc12`, the values for the IC50 in assay [1] and in assay [2] were 845 nM and 29.2 nM, respectively.

As to `O=C(CN1CCCC1)Nc1ccc2nc3n(c(=O)c2c1)CCc1c-3[nH]c2ccccc12`, the IC50 in assay [1] was 696 nM; in assay [2], 131 nM.

With `O=C(CN1CCCC1)Nc1ccc2nc3c4[nH]c5ccccc5c4ccn3c(=O)c2c1`, the IC50 worked out at 428 nM in assay [1] and 23.6 nM in assay [2].

As to `CCN(CC)CC(=O)Nc1ccc2nc3c4[nH]c5ccccc5c4ccn3c(=O)c2c1`, the figures for the IC50 in assay [1] and in assay [2] were 11400 nM and 57.1 nM, respectively.

In the case of `O=C(CN1CCCC1)Nc1ccc2ncn(CCc3c[nH]c4ccccc34)c(=O)c2c1`, the IC50 stood at 25900 nM in assay [1] and 4040 nM in assay [2].

Consider `O=C(CN1CCCCC1)Nc1ccc2nc3n(c(=O)c2c1)CCc1c-3[nH]c2ccccc12`, for which the IC50 in assay [1] is 33000 nM; in assay [2] it was 111 nM.

Regarding `CCN(CC)CC(=O)Nc1ccc2nc3n(c(=O)c2c1)CCc1c-3[nH]c2ccccc12`, the values for the IC50 in assay [1] and in assay [2] were 17600 nM and 372 nM, respectively.

On to `O=C(CN1CCCCC1)Nc1ccc2ncn(CCc3c[nH]c4ccccc34)c(=O)c2c1`, for which the IC50 was determined as 13000 nM in assay [1] and 1520 nM in assay [2].

Turning to `CCN(CC)CC(=O)Nc1ccc2ncn(CCc3c[nH]c4ccccc34)c(=O)c2c1`, the IC50 came out at 41600 nM in assay [1] and 7680 nM in assay [2].
